The source of these data is ChEMBL document CHEMBL5608246, “Membrane-Targeting Amphiphilic Honokiol Derivatives Containing an Oxazole Moiety as Potential Antibacterials against Methicillin-Resistant Staphylococcus aureus” (J Med Chem, 2024).

Data set [1] has as its system Staphylococcus aureus. Briefly: Antibacterial activity against Staphylococcus aureus ATCC 29213 assessed as resistance development by measuring fold increase in MIC after 20 passages incubated for 16 to 18 hrs. The note with it: time 16-18 hrs. Type of data set: functional.
The subject of data set [2] is Staphylococcus aureus. Nature of the data set: Antibacterial activity against methicillin resistant Staphylococcus aureus M14 incubated for 16 to 18 hrs by broth dilution method. Type of data set: functional. The note with it: time 16-18 hrs. Background: Dilution methods test growth across graded concentrations, often in twofold steps.
Data set [3] concerns Staphylococcus aureus. Briefly: Antibacterial activity against methicillin resistant Staphylococcus aureus M13 incubated for 16 to 18 hrs by broth dilution method. Type of data set: functional. The note with it: time 16-18 hrs.
Data set [4] has as its system Staphylococcus aureus. Nature of the data set: Antibacterial activity against methicillin resistant Staphylococcus aureus M11 incubated for 16 to 18 hrs by broth dilution method. Type of data set: functional. The note with it: time 16-18 hrs.
Data set [5] deals with Staphylococcus aureus. Nature of the data set: Antibacterial activity against methicillin resistant Staphylococcus aureus M12 incubated for 16 to 18 hrs by broth dilution method. Type of data set: functional. Conditions: time 16-18 hrs.
The subject of data set [6] is Staphylococcus aureus. Briefly: Antibacterial activity against Staphylococcus aureus ATCC 29213 incubated for 16 to 18 hrs by broth dilution method. Type of data set: functional. Conditions: time 16-18 hrs.
The test system of data set [7] is Staphylococcus aureus. Briefly: Antibacterial activity against methicillin resistant Staphylococcus aureus M20 incubated for 16 to 18 hrs by broth dilution method. Type of data set: functional. Conditions: time 16-18 hrs.
Data set [8] has as its system Staphylococcus aureus. Nature of the data set: Antibacterial activity against methicillin resistant Staphylococcus aureus M17 incubated for 16 to 18 hrs by broth dilution method. The note with it: time 16-18 hrs. Type of data set: functional.
Data set [9] can be described thus: Hemolytic activity in sheep RBC incubated for 1 hr. Type of data set: toxicity, cell-based, Ovis aries, Erythrocyte. The note with it: sheep red blood cells (erythrocytes).
In data set [10] the test system is Staphylococcus aureus. Briefly: Antibacterial activity against methicillin resistant Staphylococcus aureus M16 incubated for 16 to 18 hrs by broth dilution method. Type of data set: functional. The note with it: time 16-18 hrs.
Data set [11] concerns Staphylococcus aureus. Briefly: Antibacterial activity against methicillin resistant Staphylococcus aureus M21 incubated for 16 to 18 hrs by broth dilution method. Type of data set: functional. Conditions: time 16-18 hrs.
Data set [12] deals with Staphylococcus aureus. Briefly: Antibacterial activity against methicillin resistant Staphylococcus aureus M23 incubated for 16 to 18 hrs by broth dilution method. Conditions: time 16-18 hrs. Type of data set: functional.
The nature of data set [13]: Selectivity index, ratio of HC50 for sheep RBC to MIC for Staphylococcus aureus ATCC 29213. Type of data set: toxicity. The note with it: sheep red blood cells, read-out: Selectivity Index.
In the next data set the test system is Escherichia coli. Nature of the data set: Antibacterial activity against Escherichia coli ATCC 25922 incubated for 16 to 18 hrs by broth dilution method. Type of data set: functional. Conditions: time 16-18 hrs.
Data set [14] deals with Staphylococcus aureus. Nature of the data set: Antibacterial activity against methicillin resistant Staphylococcus aureus M22 incubated for 16 to 18 hrs by broth dilution method. Type of data set: functional. Conditions: time 16-18 hrs.
Data set [15] has as its system Staphylococcus aureus. Briefly: Antibacterial activity against methicillin resistant Staphylococcus aureus N315 incubated for 16 to 18 hrs by broth dilution method. Type of data set: functional. Conditions: time 16-18 hrs.
For a further data set, the system named is Cell membrane. Briefly: Induction of membrane permeability in methicillin resistant Staphylococcus aureus 20 at 32 ug/ml measured at 2 mins interval over 20 mins by SYTOX green staining based assay. Conditions: dose 32.0 µg/ml.

Activity calls are given as the source filed them. The rule behind the calls is not given here. Bounds are passed on as bounds.

With `CCn1cc(C(=O)O)c(=O)c2cc(F)c(N3CCNCC3)cc21` [NORFLOXACIN], the “fold change (FC)” value in the data set on Staphylococcus aureus [1] amounted to 128.

What is called MIC is the lowest concentration found to suppress growth. The low end stands for a more susceptible organism, the high end for a less susceptible organism. As a reminder, the HC50 is the concentration giving 50% haemolysis. High values mean weaker haemolysis, low ones stronger haemolysis. For `C=CCc1cc(-c2ccc(OCCC[N+](C)(C)CC(=O)NCCCC)c(CC=C)c2)c2oc(-c3ccccc3Cl)nc2c1.[Br-]`, the minimum inhibitory concentration (MIC) in the data set with Staphylococcus aureus [2] came to 64 µg/mL; in the data set on Staphylococcus aureus [3] it was 32 µg/mL; against Staphylococcus aureus [4] it was 128 µg/mL; against Staphylococcus aureus [5] it was 64 µg/mL; in the data set on Staphylococcus aureus [6] it was 16 µg/mL; in the data set with Staphylococcus aureus [7], 64 µg/mL. Also, the minimum inhibitory concentration (MIC) is 128 µg/mL against Staphylococcus aureus [8]; 32 µg/mL against Staphylococcus aureus [10]; 128 µg/mL against Staphylococcus aureus [11]; 32 µg/mL with Staphylococcus aureus [12]; 128 µg/mL against Escherichia coli; 32 µg/mL against Staphylococcus aureus [14]. In the data set on Staphylococcus aureus [15], this compound had a minimal inhibitory concentration (MIC) of 64 µg/mL. The compound further gave an HC50 at 1 h in data set [9] of more than 640 µg/mL. Besides, the selectivity ratio in data set [13] is more than 40.

Take `C=CCc1cc(-c2ccc(OCCC[N+](C)(C)CC(=O)NCCCC)c(CC=C)c2)c2oc(-c3ccc(Cl)c(F)c3)nc2c1.[Br-]`: the minimum inhibitory concentration (MIC) came out at 4 µg/mL in the data set on Staphylococcus aureus [2]; 8 µg/mL in the data set on Staphylococcus aureus [3]; 8 µg/mL with Staphylococcus aureus [4]; 16 µg/mL in the data set with Staphylococcus aureus [5]; 64 µg/mL against Staphylococcus aureus [6]; 8 µg/mL against Staphylococcus aureus [7]. The MIC in the data set on Staphylococcus aureus [8] turned out to be 16 µg/mL; in the data set with Staphylococcus aureus [10] it was 8 µg/mL; in the data set with Staphylococcus aureus [11], 8 µg/mL; against Staphylococcus aureus [12], 8 µg/mL; in the data set on Escherichia coli it was 128 µg/mL; in the data set with Staphylococcus aureus [14], 8 µg/mL. In the data set on Staphylococcus aureus [15], this compound registered an MIC of 8 µg/mL. The same compound came in with an HC50 at 1 h in data set [9] of 81 µg/mL. Besides, the selectivity ratio in [13] stood at 1.3.

As for `C=CCc1cc(-c2ccc(OCCC[N+](C)(C)CC(=O)NCCCC)c(CC=C)c2)c2oc(-c3ccc(Cl)cc3)nc2c1.[Br-]`, the MIC against Staphylococcus aureus [2] is 8 µg/mL; in the data set with Staphylococcus aureus [3], 4 µg/mL; in the data set on Staphylococcus aureus [4], 4 µg/mL; against Staphylococcus aureus [5] it was 4 µg/mL; in the data set with Staphylococcus aureus [6] it was 16 µg/mL; with Staphylococcus aureus [7] it was 8 µg/mL. Further, the MIC is 4 µg/mL with Staphylococcus aureus [8]; 4 µg/mL in the data set on Staphylococcus aureus [10]; 4 µg/mL against Staphylococcus aureus [11]; 4 µg/mL in the data set with Staphylococcus aureus [12]; more than 128 µg/mL against Escherichia coli; 8 µg/mL against Staphylococcus aureus [14]. This compound also came in with an MIC against Staphylococcus aureus [15] of 8 µg/mL. The compound further displayed an HC50 at 1 h in data set [9] of more than 640 µg/mL. In addition, in data set [13], the selectivity ratio is more than 40.

Regarding `CC[C@H](C)[C@H](NC(=O)CN)C(=O)NCC(=O)N[C@@H](C)C(=O)N[C@H](C(=O)N[C@@H](CC(C)C)C(=O)N[C@@H](CCCCN)C(=O)N[C@H](C(=O)N[C@@H](CC(C)C)C(=O)N[C@H](C(=O)N[C@H](C(=O)NCC(=O)N[C@@H](CC(C)C)C(=O)N1CCC[C@H]1C(=O)N[C@@H](C)C(=O)N[C@@H](CC(C)C)C(=O)N[C@H](C(=O)N[C@@H](CO)C(=O)N[C@@H](Cc1c[nH]c2ccccc12)C(=O)N[C@H](C(=O)N[C@@H](CCCCN)C(=O)N[C@@H](CCCNC(=N)N)C(=O)N[C@@H](CCCCN)C(=O)N[C@@H](CCCNC(=N)N)C(=O)N[C@@H](CCC(N)=O)C(=O)N[C@@H](CCC(N)=O)C(N)=O)[C@@H](C)CC)[C@@H](C)CC)[C@@H](C)O)[C@@H](C)O)C(C)C)C(C)C`, the outcome in the data set with Cell membrane was Active.
